Assay results: patent US8980830B2 (priority 2007, dated 2015)
Like-named read-outs stand apart in the source and are kept apart here. Blank lines part the entries; values can stand above or below the molecule they belong to. Bridge positions count the residues as written; N and C are the ends. Square brackets hold non-standard residues; d marks the D form. Ends that are not written are not given here. Peptide text beside a SMILES is read from it. * marks the point of attachment. X1 = CC(C)CCC[C@@H](C)[C@H]1CC[C@H]2[C@@H]3CC=C4C[C@@H](OC(=O)CCOCCOCCOCCOCCOCCOCCOCCOCCOCCOCCOCCOCCNC(=O)CSCCC(=O)*)CC[C@]4(C)[C@H]3CC[C@]12C; MCA = alpha-methylhydrocinnamic acid (2-methyl-3-phenylpropanoic acid); Abu(4-SO3H) = N[C@@H](CCS(=O)(=O)O)C(=O)O; Palmitoyl = CCCCCCCCCCCCCCCC(=O)*; PhLac = O=C(O)[C@@H](O)Cc1ccccc1; Aad = N[C@@H](CCCC(=O)O)C(=O)O

How the values were obtained:
[1] = molecular target: GLP-1 Receptor (Homo sapiens, UniProt P43220); assay: Functional assay, cAMP induction (luciferase reporter, HEK293) at GLP-1 receptor; assay type: cell-based; settings: GLP-1 agonism EC50 (nM)
[2] = molecular target: Glucagon Receptor (Homo sapiens, UniProt P47871); assay: cAMP inhibition: antagonism of glucagon-induced cAMP at glucagon receptor; assay type: cell-based; design: expressed in transfected cells; host or cells: HEK293; settings: for IC50 (nM) (cAMP, inhibit 0.2 mM Glucagon): Table 12
Sequence of Glucagon Receptor (P47871 26-477): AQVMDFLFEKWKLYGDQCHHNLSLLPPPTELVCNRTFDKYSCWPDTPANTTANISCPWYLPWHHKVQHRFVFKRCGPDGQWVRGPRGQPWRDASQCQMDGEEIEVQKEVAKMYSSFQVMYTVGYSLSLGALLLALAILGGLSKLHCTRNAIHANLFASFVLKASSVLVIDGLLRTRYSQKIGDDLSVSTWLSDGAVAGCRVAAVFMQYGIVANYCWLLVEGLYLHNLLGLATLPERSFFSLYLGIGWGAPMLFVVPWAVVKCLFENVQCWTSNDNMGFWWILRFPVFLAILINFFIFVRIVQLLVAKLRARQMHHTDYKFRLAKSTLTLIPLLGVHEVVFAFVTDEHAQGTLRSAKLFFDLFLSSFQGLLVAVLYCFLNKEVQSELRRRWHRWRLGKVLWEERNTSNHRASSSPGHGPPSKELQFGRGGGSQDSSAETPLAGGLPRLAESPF

Sequence of GLP-1 Receptor (P43220 24-463): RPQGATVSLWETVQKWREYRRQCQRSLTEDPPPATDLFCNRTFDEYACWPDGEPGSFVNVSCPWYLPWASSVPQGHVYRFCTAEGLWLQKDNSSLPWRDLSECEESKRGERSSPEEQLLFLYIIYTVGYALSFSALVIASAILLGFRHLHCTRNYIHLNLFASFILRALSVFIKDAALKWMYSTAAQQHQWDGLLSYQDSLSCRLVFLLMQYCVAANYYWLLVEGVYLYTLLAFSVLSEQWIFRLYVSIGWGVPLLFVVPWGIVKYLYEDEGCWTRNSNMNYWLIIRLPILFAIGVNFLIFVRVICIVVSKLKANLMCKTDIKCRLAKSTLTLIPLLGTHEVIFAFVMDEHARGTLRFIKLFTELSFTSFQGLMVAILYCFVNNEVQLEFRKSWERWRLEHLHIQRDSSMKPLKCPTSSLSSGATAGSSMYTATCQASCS

EC50 ([1]; Table 17): 289 ± 149 nM
Molecule: CSCC[C@@H]1NC(=O)[C@H](CC(C)C)NC(=O)[C@H](Cc2c[nH]c3ccccc23)NC(=O)[C@@H](NC(=O)[C@@H](NC(=O)[C@H](Cc2ccccc2)NC(=O)[C@H](CC(=O)O)NC(=O)[C@H](CCC(N)=O)NC(=O)[C@H](C)NC(=O)[C@H](CCCNC(=N)N)NC(=O)[C@H](CCCNC(=N)N)NC(=O)[C@H](CCC(=O)O)NC(=O)[C@H](CC(=O)O)NC(=O)[C@H](CC(C)C)NC(=O)[C@H](Cc2ccc(O)cc2)NC(=O)[C@H](CCCCN)NC(=O)[C@H](CO)NC(=O)[C@H](Cc2ccc(O)cc2)NC(=O)[C@H](CC(=O)O)NC(=O)[C@H](CO)NC(=O)[C@@H](NC(=O)[C@@H](O)Cc2ccccc2)[C@@H](C)O)C(C)C)CCC(=O)NCCCC[C@@H](C(=O)N[C@H](C(N)=O)[C@@H](C)O)NC1=O (H-[PhLac]TSDYSKYLDERRAQDFVEWLMKT-NH2; lactam 19-23)

EC50 ([1]; Table 24): 18 ± 2.14 nM
Molecule: CSCC[C@H](NC(=O)[C@H](CC(C)C)NC(=O)[C@H](Cc1c[nH]c2ccccc12)NC(=O)[C@H](CCC(N)=O)NC(=O)[C@@H](NC(=O)[C@H](Cc1ccccc1)NC(=O)[C@H](CC(=O)O)NC(=O)[C@@H]1CCCCNC(=O)CC[C@H](NC(=O)[C@H](CC(=O)O)NC(=O)[C@H](CC(C)C)NC(=O)[C@H](Cc2ccc(O)cc2)NC(=O)[C@H](CCCCN)NC(=O)[C@H](CO)NC(=O)[C@H](Cc2ccc(O)cc2)NC(=O)[C@H](CC(=O)O)NC(=O)[C@H](CO)NC(=O)[C@@H](NC(=O)[C@H](Cc2ccccc2)OC(=O)[C@@H](NC(=O)CNC(=O)[C@H](CCC(=O)O)NC(=O)[C@H](C)N)[C@@H](C)O)[C@@H](C)O)C(=O)N[C@@H](CCCNC(=N)N)C(=O)N[C@@H](CCCNC(=N)N)C(=O)N[C@@H](C)C(=O)N1)C(C)C)C(=O)N[C@@H](CC(=O)O)C(=O)N[C@H](C(N)=O)[C@@H](C)O [[A2E3-O-PLA6, D9, E16K20(Lactam), D28] G(2-29)] (H-AEGT[PhLac]TSDYSKYLDERRAKDFVQWLMDT-NH2; lactam 15-19; N-terminus assumed)

EC50 ([1]; Table 22): 45.7 ± 13.8 nM
Molecule: CCCCCCCCCCCCCCCC(=O)O[C@@H](Cc1ccccc1)C(=O)N[C@H](C(=O)N[C@@H](CO)C(=O)N[C@@H](CC(=O)O)C(=O)N[C@@H](Cc1ccc(O)cc1)C(=O)N[C@@H](CO)C(=O)N[C@@H](CCCCN)C(=O)N[C@@H](Cc1ccc(O)cc1)C(=O)N[C@@H](CC(C)C)C(=O)N[C@@H](CC(=O)O)C(=O)N[C@H]1CCC(=O)NCCCC[C@@H](C(=O)N[C@@H](CC(=O)O)C(=O)N[C@@H](Cc2ccccc2)C(=O)N[C@H](C(=O)N[C@@H](CCC(N)=O)C(=O)N[C@@H](Cc2c[nH]c3ccccc23)C(=O)N[C@@H](CC(C)C)C(=O)N[C@@H](CCSC)C(=O)N[C@@H](CC(=O)O)C(=O)N[C@H](C(N)=O)[C@@H](C)O)C(C)C)NC(=O)[C@H](C)NC(=O)[C@H](CCCNC(=N)N)NC(=O)[C@H](CCCNC(=N)N)NC1=O)[C@@H](C)O [[C16FA-O-PLA6, E16K20(lactam),D28]G(6-29)] (Palmitoyl-[PhLac]TSDYSKYLDERRAKDFVQWLMDT-NH2; lactam 11-15)

cAMP pA2 ([2]; Table 9): 7.16 ± 0.51
Molecule: CSCC[C@H](NC(=O)[C@H](CC(C)C)NC(=O)[C@H](Cc1c[nH]c2ccccc12)NC(=O)[C@H](CCC(N)=O)NC(=O)[C@@H](NC(=O)[C@H](Cc1ccccc1)NC(=O)[C@H](CC(=O)O)NC(=O)[C@H](CCC(N)=O)NC(=O)[C@H](C)NC(=O)[C@H](CCCNC(=N)N)NC(=O)[C@H](CCCNC(=N)N)NC(=O)[C@H](CO)NC(=O)[C@H](CC(=O)O)NC(=O)[C@H](CC(C)C)NC(=O)[C@H](Cc1ccc(O)cc1)NC(=O)[C@H](CCCCN)NC(=O)[C@H](CO)NC(=O)[C@H](Cc1ccc(O)cc1)NC(=O)[C@H](CCS(=O)(=O)O)NC(=O)[C@H](CO)NC(=O)[C@@H](NC(=O)[C@@H](N)Cc1ccccc1)[C@@H](C)O)C(C)C)C(=O)N[C@@H](CC(N)=O)C(=O)N[C@H](C(N)=O)[C@@H](C)O [[hCys^9(SO3H)]Glucagon(aa6-29)-NH2] (H-FTS[Abu(4-SO3H)]YSKYLDSRRAQDFVQWLMNT-NH2; N-terminus assumed)

cAMP pA2 ([2]; Table 9): 6.27 ± 0.11
Molecule: CSCC[C@H](NC(=O)[C@H](CC(C)C)NC(=O)[C@H](Cc1c[nH]c2ccccc12)NC(=O)[C@H](CCC(N)=O)NC(=O)[C@@H](NC(=O)[C@H](Cc1ccccc1)NC(=O)[C@H](CC(=O)O)NC(=O)[C@H](CCC(N)=O)NC(=O)[C@H](C)NC(=O)[C@H](CCCNC(=N)N)NC(=O)[C@H](CCCNC(=N)N)NC(=O)[C@H](CO)NC(=O)[C@H](CC(=O)O)NC(=O)[C@H](CC(C)C)NC(=O)[C@H](Cc1ccc(O)cc1)NC(=O)[C@H](CCCCN)NC(=O)[C@H](CO)NC(=O)[C@H](Cc1ccc(O)cc1)NC(=O)[C@H](CCCC(=O)O)NC(=O)[C@H](CO)NC(=O)[C@@H](NC(=O)[C@@H](N)Cc1ccccc1)[C@@H](C)O)C(C)C)C(=O)N[C@@H](CC(N)=O)C(=O)N[C@H](C(N)=O)[C@@H](C)O [[hGlu^9]Glucagon(aa6-29)-NH2] (H-FTS[Aad]YSKYLDSRRAQDFVQWLMNT-NH2; N-terminus assumed)

Continued, molecule first:

Molecule: CSCC[C@H](NC(=O)[C@H](CC(C)C)NC(=O)[C@H](Cc1c[nH]c2ccccc12)NC(=O)[C@H](CCC(N)=O)NC(=O)[C@@H](NC(=O)[C@H](Cc1ccccc1)NC(=O)[C@H](CC(=O)O)NC(=O)[C@@H]1CCCCNC(=O)CC[C@H](NC(=O)[C@H](CC(=O)O)NC(=O)[C@H](CC(C)C)NC(=O)[C@H](Cc2ccc(O)cc2)NC(=O)[C@H](CCCCN)NC(=O)[C@H](CO)NC(=O)[C@H](CCCCNC(=O)CCSCC(=O)NCCOCCOCCOCCOCCOCCOCCOCCOCCOCCOCCOCCOCCC(=O)O[C@H]2CC[C@@]3(C)C(=CC[C@H]4[C@@H]5CC[C@H]([C@H](C)CCCC(C)C)[C@@]5(C)CC[C@@H]43)C2)NC(=O)[C@H](CC(=O)O)NC(=O)[C@H](CO)NC(=O)[C@@H](NC(=O)[C@@H](O)Cc2ccccc2)[C@@H](C)O)C(=O)N[C@@H](CCCNC(=N)N)C(=O)N[C@@H](CCCNC(=N)N)C(=O)N[C@@H](C)C(=O)N1)C(C)C)C(=O)N[C@@H](CC(=O)O)C(=O)N[C@H](C(N)=O)[C@@H](C)O [K10-chol G(6-29), [PLA6, K10(COCH2CH2S-Chol), E16K20(lactam), D28]G(6-29) amide] (H-[PhLac]TSDK(X1)SKYLDERRAKDFVQWLMDT-NH2; lactam 11-15)
EC50 ([1]; Table 23, standard deviation in ( )): 35.3 nM

Molecule: FTSDYSKYLDSRRAQDFVQWLMNT-NH2 [Glucagon(aa6-29)-NH2]
cAMP pA2 ([2]; Table 9): 6.94 ± 0.63

Molecule: FTSEYSKYLDERRAQDFVQWLMNTGPSSGAPPPS-NH2 [E9, K12, E16]
IC50 ([2]; Glucagon antagonism IC50 (nM, inhibit 0.2-0.8 nM glucagon), Table 16, combined results of three assays): 762 ± 127 nM

Molecule: FTSKYSKYLDSRRAQDFVQWLMNT-NH2 [[Lys^9]Glucagon(aa6-29)-NH2]
cAMP pA2 [2]: 6.58 ± 0.60

Molecule: [MCA^6, E^9, C^24(20kDaPEG)]Glucagon(aa6-29)-NH2 ([MCA]TSEYSKYLDSRRAQDFVC(PEG 20 kDa)WLMNT-NH2)
IC50 (nM) (cAMP, inhibit 0.2 mM Glucagon) [2]: no antagonism

Molecule: [PLA6, E9,E16K20(Lactam), C24(20 kDa)]G(6-29) ([PhLac]TSEYSKYLDERRAKDFVC(PEG 20 kDa)WLMNT; lactam 11-15)
Glucagon antagonism IC50(nM) (inhibit 0.2-0.8 nM glucagon) [2]: Not detect

Molecule: [PLA6, K12E16(Lactam), D28,CEX-C40(20 kDa)]G(6-40) ([PhLac]TSDYSKYLDERRAQDFVQWLMDTGPSSGAPPPSC(PEG 20 kDa); lactam 7-11)
Glucagon antagonism IC50(nM) (inhibit 0.2-0.8 nM glucagon) [2]: Not antagonist (n = 1)

Molecule: [PLA^6, C^8(1.2kDaPEG), E^9]Glucagon(aa6-29)-NH2 ([PhLac]TC(PEG 1.2 kDa)EYSKYLDSRRAQDFVQWLMNT-NH2)
IC50 (nM) (cAMP, inhibit 0.2 mM Glucagon) [2]: no antagonism
